In patent US20250064941A1, “SIGLEC LIGANDS, CONJUGATES, AND METHODS OF USE THEREOF” (Osprey Biopharmaceuticals, Inc., priority 2023, published 2025):

Key:
[1] = molecular target: T1, mouse Siglec-2-Fc-Avi (CD22) (Mus musculus, UniProt P35329); test: SPR binding affinity to mouse CD22; conditions: steady-state analysis
T1 construct: made in house
T1 sequence (P35329 22-708 limits assumed): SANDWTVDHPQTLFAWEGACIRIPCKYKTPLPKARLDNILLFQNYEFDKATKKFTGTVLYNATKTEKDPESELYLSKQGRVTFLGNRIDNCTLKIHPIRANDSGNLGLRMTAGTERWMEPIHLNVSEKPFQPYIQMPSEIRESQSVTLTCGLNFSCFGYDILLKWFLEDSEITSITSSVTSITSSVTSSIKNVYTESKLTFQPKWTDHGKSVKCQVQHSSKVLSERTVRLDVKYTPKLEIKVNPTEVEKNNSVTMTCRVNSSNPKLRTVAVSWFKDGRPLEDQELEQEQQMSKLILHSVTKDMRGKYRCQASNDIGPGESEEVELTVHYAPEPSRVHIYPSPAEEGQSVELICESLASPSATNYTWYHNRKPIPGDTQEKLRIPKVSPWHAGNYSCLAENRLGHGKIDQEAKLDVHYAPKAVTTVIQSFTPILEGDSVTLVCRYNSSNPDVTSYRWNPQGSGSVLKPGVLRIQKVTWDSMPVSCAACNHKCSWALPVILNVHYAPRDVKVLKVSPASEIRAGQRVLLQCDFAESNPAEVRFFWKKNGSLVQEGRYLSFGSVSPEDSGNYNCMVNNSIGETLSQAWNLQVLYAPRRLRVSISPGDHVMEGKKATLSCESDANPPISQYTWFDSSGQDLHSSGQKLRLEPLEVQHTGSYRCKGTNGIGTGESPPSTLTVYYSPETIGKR
Outline: (§1)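 Native sialic acid residues are removed from the receptor enzymatically (4 hours at 37° C.) prior to streptavidin capture of the biotinylated protein. Ligand compounds then flow over in HEPES-buffered saline, pH 7.5, containing 0.05% Tween-20 and 1% DMSO, and binding is evaluated at steady state.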

[2] = molecular target: T2, human Siglec-2/CD22 protein (Homo sapiens, UniProt P20273); test: SPR binding affinity to human CD22; conditions: steady-state analysis
T2 construct: purchased Acro Biosystems SI2-H82E3
T2 sequence (P20273 20-847): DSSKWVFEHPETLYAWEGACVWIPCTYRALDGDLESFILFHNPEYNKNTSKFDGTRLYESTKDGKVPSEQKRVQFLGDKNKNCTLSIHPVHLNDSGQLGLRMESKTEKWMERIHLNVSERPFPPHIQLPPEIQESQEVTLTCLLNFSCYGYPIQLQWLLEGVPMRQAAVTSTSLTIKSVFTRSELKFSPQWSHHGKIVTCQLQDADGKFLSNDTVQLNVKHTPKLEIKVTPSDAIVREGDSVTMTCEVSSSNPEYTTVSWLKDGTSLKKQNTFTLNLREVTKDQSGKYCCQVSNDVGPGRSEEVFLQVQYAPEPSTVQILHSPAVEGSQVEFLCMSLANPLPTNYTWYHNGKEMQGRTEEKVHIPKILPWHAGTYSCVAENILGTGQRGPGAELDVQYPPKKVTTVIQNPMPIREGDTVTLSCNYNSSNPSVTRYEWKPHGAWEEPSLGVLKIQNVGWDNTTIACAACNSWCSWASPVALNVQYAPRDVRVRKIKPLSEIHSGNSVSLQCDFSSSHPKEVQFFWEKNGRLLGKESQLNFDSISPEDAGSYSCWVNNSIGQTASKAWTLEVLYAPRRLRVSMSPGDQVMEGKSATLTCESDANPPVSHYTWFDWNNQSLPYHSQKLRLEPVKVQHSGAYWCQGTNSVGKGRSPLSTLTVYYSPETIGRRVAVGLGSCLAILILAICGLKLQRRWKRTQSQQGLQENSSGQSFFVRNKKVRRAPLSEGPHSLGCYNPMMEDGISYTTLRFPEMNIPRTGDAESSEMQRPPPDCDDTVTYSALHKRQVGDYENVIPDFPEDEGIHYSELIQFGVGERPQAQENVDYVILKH
Outline: as §1

cynomolgus Siglec-2/CD22 = cynomolgus Siglec-2/CD22 (Macaca fascicularis, UniProt A0A2K5WCZ6); test: biochemical; type: binding; conditions: SPR, steady-state analysis; read-out: Affinity cyno CD22
Chain of cynomolgus Siglec-2/CD22 (A0A2K5WCZ6 entry or part of it): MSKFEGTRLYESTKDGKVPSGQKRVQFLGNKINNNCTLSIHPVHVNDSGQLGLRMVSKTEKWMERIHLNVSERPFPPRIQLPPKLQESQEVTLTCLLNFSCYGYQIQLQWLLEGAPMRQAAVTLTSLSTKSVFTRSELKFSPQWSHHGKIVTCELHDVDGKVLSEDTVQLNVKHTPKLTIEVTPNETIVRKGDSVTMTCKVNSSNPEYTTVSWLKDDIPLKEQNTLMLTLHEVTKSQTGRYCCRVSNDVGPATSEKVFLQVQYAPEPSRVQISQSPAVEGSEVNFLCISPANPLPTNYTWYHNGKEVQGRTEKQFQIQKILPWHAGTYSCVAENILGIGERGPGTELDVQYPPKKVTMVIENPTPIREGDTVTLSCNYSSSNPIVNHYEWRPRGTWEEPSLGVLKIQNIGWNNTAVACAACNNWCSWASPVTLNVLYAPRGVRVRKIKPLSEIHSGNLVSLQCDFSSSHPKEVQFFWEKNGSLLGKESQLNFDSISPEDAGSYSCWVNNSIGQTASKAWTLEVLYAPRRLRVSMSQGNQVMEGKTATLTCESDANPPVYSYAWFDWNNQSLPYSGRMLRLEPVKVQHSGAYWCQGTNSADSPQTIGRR
Outline: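 Compound binding measured by steady-state SPR analysis, 120 s dissociation, in HEPES-NaCl-Tween buffer pH 7.5 containing 1% DMSO, DMSO solvent-corrected. Surface: cyno CD22, sialic acids first stripped by SialoExo for 4 h at 37° C., then amine-coupled onto CM5.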

Row | Compound | Kd [1] | Kd [2] | Kd (cynomolgus Siglec-2/CD22)
1 | C#CCOCCOCCO[C@]1(C(=O)O)C[C@H](O)[C@@H](NC(=O)CO)[C@H]([C@H](O)[C@H](O)CNC(=O)Cn2cc(-c3ccccc3)nn2)O1 [Compound 177, (2R,4S,5R,6R)-6-((1R,2R)-1,2-dihydroxy-3-(2-(4-phenyl-1H-1,2,3-triazol-1-yl)acetamido)propyl)-4-hydroxy-5-(2-hydroxyacetamido)-2-(2-(2-(prop-2-yn-1-yloxy)ethoxy)ethoxy)tetrahydro-2H-pyran-2-carboxylic acid] | > 10 µM | 1000 to 10000 nM | 1000 to 10000 nM
2 | C#CCOCCOCCO[C@@]1(C(=O)O)O[C@@H]([C@H](O)[C@H](O)CNC(=O)Cc2ccc(-c3ccccc3)cc2)[C@H](NC(=O)CO)[C@@H](NC(=O)CC)[C@@H]1O [Compound 178, (2R,3S,4R,5R,6R)-6-((1R,2R)-3-(2-([1,1′-biphenyl]-4-yl)acetamido)-1,2-dihydroxypropyl)-3-hydroxy-5-(2-hydroxyacetamido)-2-(2-(2-(prop-2-yn-1-yloxy)ethoxy)ethoxy)-4-propionamidotetrahydro-2H-pyran-2-carboxylic acid] | > 10 µM | 1000 to 10000 nM | 1000 to 10000 nM
3 | C#CCOCCOCCO[C@]1(C(=O)O)C[C@H](O)[C@@H](NC(=O)CO)[C@H]([C@H](O)[C@H](O)CNC(=O)c2cc3c(s2)-c2ccccc2OC3)O1 [Compound 179, (2R,4S,5R,6R)-6-((1R,2R)-1,2-dihydroxy-3-(4H-thieno[3,2-c]chromene-2-carboxamido)propyl)-4-hydroxy-5-(2-hydroxyacetamido)-2-(2-(2-(prop-2-yn-1-yloxy)ethoxy)ethoxy)tetrahydro-2H-pyran-2-carboxylic acid] | > 10 µM | < 1000 nM | 1000 to 10000 nM
4 | C#CCOCCCCCCO[C@]1(C(=O)O)C[C@H](O)[C@@H](NCC(=O)N(C)C)[C@H]([C@H](O)[C@H](O)CNC(=O)Cc2ccc(Cl)cc2)O1 [Compound 180, (2R,4S,5R,6R)-6-((1R,2R)-3-(2-(4-chlorophenyl)acetamido)-1,2-dihydroxypropyl)-5-((2-(dimethylamino)-2-oxoethyl)amino)-4-hydroxy-2-((6-(prop-2-yn-1-yloxy)hexyl)oxy)tetrahydro-2H-pyran-2-carboxylic acid] | 1 to 10 µM | > 10000 nM | 1000 to 10000 nM
5 | C#CCOCCCCCCO[C@]1(C(=O)O)C[C@H](O)[C@@H](NCC(=O)NC)[C@H]([C@H](O)[C@H](O)CNC(=O)Cc2ccc(Cl)cc2)O1 [Compound 181, (2R,4S,5R,6R)-6-((1R,2R)-3-(2-(4-chlorophenyl)acetamido)-1,2-dihydroxypropyl)-4-hydroxy-5-((2-(methylamino)-2-oxoethyl)amino)-2-((6-(prop-2-yn-1-yloxy)hexyl)oxy)tetrahydro-2H-pyran-2-carboxylic acid] | 1 to 10 µM | 1000 to 10000 nM | 1000 to 10000 nM
6 | C#CCOCCCCCCO[C@]1(C(=O)O)C[C@H](O)[C@@H](NCC(N)=O)[C@H]([C@H](O)[C@H](O)CNC(=O)Cc2ccc(Cl)cc2)O1 [Compound 182, (2R,4S,5R,6R)-5-((2-amino-2-oxoethyl)amino)-6-((1R,2R)-3-(2-(4-chlorophenyl)acetamido)-1,2-dihydroxypropyl)-4-hydroxy-2-((6-(prop-2-yn-1-yloxy)hexyl)oxy)tetrahydro-2H-pyran-2-carboxylic acid] | 1 to 10 µM | 1000 to 10000 nM | 1000 to 10000 nM
7 | C#CCOCCCCCCO[C@]1(C(=O)O)C[C@H](O)[C@@H](NC(=O)C(C)O)[C@H]([C@H](O)[C@H](O)CNC(=O)Cc2ccc(Cl)cc2)O1 (stereo partly drawn) [Compound 183, (2R,4S,5R,6R)-6-((1R,2R)-3-(2-(4-chlorophenyl)acetamido)-1,2-dihydroxypropyl)-4-hydroxy-5-(2-hydroxypropanamido)-2-((6-(prop-2-yn-1-yloxy)hexyl)oxy)tetrahydro-2H-pyran-2-carboxylic acid] | 1 to 10 µM | 1000 to 10000 nM | < 1000 nM
8 | C#CCOCCCCCCO[C@]1(C(=O)O)C[C@H](O)[C@@H](NC(=O)CN)[C@H]([C@H](O)[C@H](O)CNC(=O)Cc2ccc(Cl)cc2)O1 [Compound 184, (2R,4S,5R,6R)-5-(2-aminoacetamido)-6-((1R,2R)-3-(2-(4-chlorophenyl)acetamido)-1,2-dihydroxypropyl)-4-hydroxy-2-((6-(prop-2-yn-1-yloxy)hexyl)oxy)tetrahydro-2H-pyran-2-carboxylic acid] | 1 to 10 µM | 1000 to 10000 nM | 1000 to 10000 nM
9 | C#CCOCCCCCCO[C@]1(C(=O)O)C[C@H](O)[C@@H](NC(=O)NCCO)[C@H]([C@H](O)[C@H](O)CNC(=O)Cc2ccc(Cl)cc2)O1 [Compound 185, (2R,4S,5R,6R)-6-((1R,2R)-3-(2-(4-chlorophenyl)acetamido)-1,2-dihydroxypropyl)-4-hydroxy-5-(3-(2-hydroxyethyl)ureido)-2-((6-(prop-2-yn-1-yloxy)hexyl)oxy)tetrahydro-2H-pyran-2-carboxylic acid] | 1 to 10 µM | 1000 to 10000 nM | < 1000 nM
10 | C#CCOCCCCCCS[C@]1(C(=O)O)C[C@H](O)[C@@H](NC(=O)CO)[C@H]([C@H](O)[C@H](O)CNC(=O)Cc2ccc(Cl)cc2)O1 [Compound 186, (2S,4S,5R,6R)-6-((1R,2R)-3-(2-(4-chlorophenyl)acetamido)-1,2-dihydroxypropyl)-4-hydroxy-5-(2-hydroxyacetamido)-2-((6-(prop-2-yn-1-yloxy)hexyl)thio)tetrahydro-2H-pyran-2-carboxylic acid] | < 1 µM | < 1000 nM | < 1000 nM
11 | C#CCNC(=O)c1ccc(CS[C@]2(C(=O)O)C[C@H](O)[C@@H](NC(=O)CO)[C@H]([C@H](O)[C@H](O)CNC(=O)Cc3ccc(Cl)cc3)O2)cc1 [Compound 187, (2S,4S,5R,6R)-6-((1R,2R)-3-(2-(4-chlorophenyl)acetamido)-1,2-dihydroxypropyl)-4-hydroxy-5-(2-hydroxyacetamido)-2-((4-(prop-2-yn-1-ylcarbamoyl)benzyl)thio)tetrahydro-2H-pyran-2-carboxylic acid] | < 1 µM | < 1000 nM | < 1000 nM
12 | C#CCOCCCCCCO[C@]1(C(=O)O)C[C@H](O)[C@@H](NC(=O)C(=O)Nc2ccccc2)[C@H]([C@H](O)[C@H](O)CNC(=O)Cc2ccc(Cl)cc2)O1 [Compound 188, (2R,4S,5R,6R)-6-((1R,2R)-3-(2-(4-chlorophenyl)acetamido)-1,2-dihydroxypropyl)-4-hydroxy-5-(2-oxo-2-(phenylamino)acetamido)-2-((6-(prop-2-yn-1-yloxy)hexyl)oxy)tetrahydro-2H-pyran-2-carboxylic acid] | 1 to 10 µM | < 1000 nM | < 1000 nM
13 | C#CCOCCCCCCO[C@]1(C(=O)O)C[C@H](O)[C@@H](NC(=O)C(=O)NC)[C@H]([C@H](O)[C@H](O)CNC(=O)Cc2ccc(Cl)cc2)O1 [Compound 189, (2R,4S,5R,6R)-6-((1R,2R)-3-(2-(4-chlorophenyl)acetamido)-1,2-dihydroxypropyl)-4-hydroxy-5-(2-(methylamino)-2-oxoacetamido)-2-((6-(prop-2-yn-1-yloxy)hexyl)oxy)tetrahydro-2H-pyran-2-carboxylic acid] | 1 to 10 µM | 1000 to 10000 nM | < 1000 nM
